Assay results reported in US11453667B2, “Pyridone-pyrimidine derivative acting as KRASG12C mutein inhibitor” (MEDSHINE DISCOVERY INC., priority 2018, dated 2022).

Key:
[1] = tested on: wild-type A375 human malignant melanoma cells; assay: Cell experiment: anti-proliferative activity, CellTiter-Glo, A375; type: cell-based; settings: Homo sapiens, A-375, 120 h, 5 days culture
Experimental: This experiment is intended to verify that the compounds of the present invention have an inhibitory effect on the proliferation of NCI-H358 human non-small cell lung cancer cells with KRAS G12C mutation, MIA PaCa2 human pancreatic cancer cells with KRAS G12C mutation and wild-type A375 human malignant melanoma cells.
40 μl of phosphate buffer was added to the peripheral wells of three 384-well microplates respectively, and 40 μl of cell suspension to be tested was added to the other wells of each plate respectively (plate 1: NCI-H358 cell suspension containing 500 NCI-H358 cells; plate 2: MIAPaCa2 cell suspension containing 300 MIAPaCa2 cells; plate 3: A375 cell suspension containing 300 A375 cells). The three cell plates were then placed in a carbon dioxide incubator and incubated overnight. Echo was used to perform a 3-fold gradient dilution of the compounds to be tested, and each compound was diluted with 10 concentration gradients (diluted from 50 μM to 0.003 μM), 100 nl of which was respectively added to the corresponding wells of the cell plates; after dosing, 40 μL of phosphate buffer was added to each well of rows A and P and columns 1 and 24, and then the cell plates were put back to the carbon dioxide incubator for culturing for 5 days. 20 μl of Promega CellTiter-Glo reagent per well was added to the cell plates, which was shaken at room temperature for 10 minutes in the dark to stabilize the luminescence signal. A PerkinElmer Envision multi-label analyzer was used for reading.
Data analysis: IC50 results were analyzed by GraphPad Prism 5.0 software […].

[2] = tested on: human non-small cell lung cancer NCI-H358; assay: In vivo drug efficacy test (4): subcutaneous xenograft tumor model; design: species or system BALB/c nude mice; settings: for TGI: day 27
Experimental: (§1) To evaluate the in vivo efficacy of the test compounds in a subcutaneous xenograft tumor model of human non-small cell lung cancer NCI-H358.
BALB/c nude mice, female, 6-8 weeks old, weighing 18-20 grams. A total of 40 were required. They were provided by Shanghai Lingchang Experimental Animal Co., Ltd ( ? ? ). NCI-H358 tumor cells were resuspended in PBS to prepare a cell suspension with a density of 5×10^7/mL, which was inoculated subcutaneously on the right back of each mouse (0.1 mL, 5×10^6/mouse) to wait for tumor growth. When the average tumor volume reached about 166 mm^3, randomized grouping and administration were performed, and the administration dose was shown in Table 8. The diameter of the tumor was measured with vernier calipers twice a week.
The formula for calculating the tumor volume is: V=0.5a×b^2, wherein a and b represent the long and short diameters of the tumor, respectively. The tumor suppressive effect of the compounds was evaluated by TGI (%). TGI (%) reflects the tumor growth inhibition rate. Calculation of TGI (%): TGI (%)=[(1−(average tumor volume at the end of administration in a treatment group−average tumor volume at the beginning of administration in the treatment group))/(average tumor volume at the end of treatment in the solvent control group−average tumor volume at the beginning of treatment in the solvent control group)]×100%.

[3] = tested on: human non-small cell lung cancer NCI-H358; assay: In vivo drug efficacy test (2): subcutaneous xenograft tumor model; design: species or system BALB/c nude mice; settings: 100 mg/kg (0-6 days) + 50 mg/kg (7-20 days)
Experimental: as §1
BALB/c nude mice, female, 6-8 weeks old, weighing 18-21 grams. A total of 100 were required. They were provided by Shanghai Lingchang Experimental Animal Co., Ltd ( ? ? ). NCI-H358 tumor cells were resuspended in PBS to prepare 0.1 mL (5×10^6) of cell suspension, which was inoculated subcutaneously on the right back of each mouse (5×10^6/mouse) to wait for tumor growth. When the average tumor volume reached about 150-200 mm^3, randomized grouping and administration were performed, and the administration dose was shown in Table 6. The diameter of the tumor was measured with vernier calipers twice a week. The formula for calculating the tumor volume is: V=0.5a×b^2, wherein a and b represent the long and short diameters of the tumor, respectively. The tumor suppressive effect of the compounds was evaluated by TGI (%). TGI (%) reflects the tumor growth inhibition rate. Calculation of TGI (%): TGI (%)=[(1−(average tumor volume at the end of administration in a treatment group−average tumor volume at the beginning of administration in the treatment group))/(average tumor volume at the end of treatment in the solvent control group−average tumor volume at the beginning of treatment in the solvent control group)]×100%.

[4] = 50 mg/kg (0-2 days) + 1.5 mg/kg (3-27 days)

In the case of `C=CC(=O)N1CCN(c2ncnc3c(=O)n(-c4c(N)c(Cl)cc(Cl)c4F)c(C(F)(F)F)cc23)CC1` [Example 49], the IC50 [1] is reported as 7.32 µM, the “Tumor volume (day 27)” value ([2]; 5 mg/kg) is reported as 117 mm^3 and the TGI ([2]; 5 mg/kg) is reported as 107.25%. The “Tumor volume (day 27)” value ([2]; 15 mg/kg) was 56 mm^3, the TGI ([2]; 15 mg/kg) was 116.27% and the “Tumor volume (day 27)” value [2, 4] was 295 mm^3. The TGI [2, 4] was 80.92%, the “Tumor volume (day 20)” value [3] was 30 mm^3 and the TGI ([3]; day 20) was 125.66%.
